Conditions: Fluid (supercritical or subcritical phases), Dynamic light scattering

O=C=O [carbon dioxide]
Conditions | thermal diffusivity [m2/s]
293.55 K, 10990 kPa | 4.54e-08
295.33 K, 8060 kPa | 3.64e-08
295.4 K, 10050 kPa | 4.04e-08
297.27 K, 7520 kPa | 2.9e-08
297.45 K, 7000 kPa | 2.67e-08
302.29 K, 11020 kPa | 3.74e-08
302.43 K, 8030 kPa | 2.25e-08
302.5 K, 8980 kPa | 2.81e-08
303.34 K, 10000 kPa | 3.28e-08
305.32 K, 7050 kPa | 3.23e-08
305.77 K, 7510 kPa | 1.22e-08
307 K, 8060 kPa | 8.8e-09
307.3 K, 9050 kPa | 2.14e-08
307.42 K, 10540 kPa | 2.76e-08
312.35 K, 8020 kPa | 2.68e-08
312.44 K, 9010 kPa | 9.3e-09
313.93 K, 10020 kPa | 1.71e-08
314.2 K, 11020 kPa | 2.66e-08
316.1 K, 7000 kPa | 6.47e-08
316.65 K, 7490 kPa | 5.72e-08
317.11 K, 9010 kPa | 1.99e-08
317.19 K, 10190 kPa | 1.4e-08
317.56 K, 8000 kPa | 4.32e-08
322.67 K, 10290 kPa | 2.13e-08
323.48 K, 11000 kPa | 1.97e-08
324.73 K, 9080 kPa | 4.26e-08
324.99 K, 8160 kPa | 6.12e-08
326.51 K, 7010 kPa | 8.98e-08
326.93 K, 7480 kPa | 7.92e-08
328.26 K, 11000 kPa | 2.63e-08
333.11 K, 11010 kPa | 3.22e-08
333.51 K, 9020 kPa | 6e-08
333.97 K, 8140 kPa | 8.06e-08
334.01 K, 10320 kPa | 4.36e-08
336.92 K, 7000 kPa | 1.08e-07
337.46 K, 7510 kPa | 1.02e-07
343.12 K, 8000 kPa | 9.67e-08
343.7 K, 9050 kPa | 7.77e-08
343.72 K, 10060 kPa | 6.38e-08
343.95 K, 10970 kPa | 5.2e-08
345.99 K, 11010 kPa | 5.38e-08
346.99 K, 7020 kPa | 1.31e-07
347.28 K, 7500 kPa | 1.17e-07
353.14 K, 10270 kPa | 7.34e-08
353.95 K, 9020 kPa | 9.9e-08
354.57 K, 8000 kPa | 1.15e-07
356.06 K, 11030 kPa | 7.11e-08
357.15 K, 7030 kPa | 1.46e-07
357.37 K, 7500 kPa | 1.37e-07
363.07 K, 10000 kPa | 8.99e-08
363.43 K, 9020 kPa | 1.07e-07
364.02 K, 8020 kPa | 1.31e-07
365.89 K, 11050 kPa | 8.37e-08
367.01 K, 7010 kPa | 1.62e-07
367.19 K, 7600 kPa | 1.54e-07
373.34 K, 10090 kPa | 1.04e-07
373.59 K, 9010 kPa | 1.24e-07
374.62 K, 8010 kPa | 1.49e-07
375.92 K, 11040 kPa | 9.69e-08
377.05 K, 7040 kPa | 1.82e-07
377.25 K, 7480 kPa | 1.75e-07
382.51 K, 10040 kPa | 1.23e-07
383.53 K, 8040 kPa | 1.66e-07
383.71 K, 9020 kPa | 1.41e-07
385.64 K, 10990 kPa | 1.15e-07
386.8 K, 7480 kPa | 1.87e-07
386.82 K, 7010 kPa | 2.09e-07
392.06 K, 10550 kPa | 1.32e-07
393.82 K, 9040 kPa | 1.57e-07
394.36 K, 7960 kPa | 1.89e-07
395.37 K, 11030 kPa | 1.23e-07
396.68 K, 7010 kPa | 2.2e-07
396.85 K, 7490 kPa | 2.04e-07
402.64 K, 10200 kPa | 1.45e-07
403.05 K, 9020 kPa | 1.66e-07
403.62 K, 8070 kPa | 1.98e-07
405.15 K, 11090 kPa | 1.3e-07
406.44 K, 7020 kPa | 2.38e-07
406.5 K, 7500 kPa | 2.2e-07

From the NIST ThermoML archive (doi:10.1016/j.fluid.2018.07.012)
